The nature of one series: Spectrometric. Type of series: physicochemical. The settings on record: aqueous buffer solutions at various pH, pH 3.5.
Series [1] is described as follows: TPT lactone-carboxylate interconversion. Type of series: physicochemical. Particulars: 37 °C, aqueous buffers pH 5.92-7.67, fit of kinetic interconversion model.
Series [2] is classed as physicochemical.
[3] abbreviates: DSPC/DSPE-PEG2K bilayer, model fit of release profiles.
Setting [4] is: DSPC/DSPE-PEG2K liposomes, 38.7 ± 0.1 °C, model fit over pH 3.35-7.67.

By pKa is commonly meant the negative logarithm of the acid dissociation constant. A high value points to a group that holds its proton tightly. As to `CC[C@@]1(O)C(=O)OCc2c1cc1n(c2=O)Cc2cc3c(CN(C)C)c(O)ccc3nc2-1` [TPT, topotecan], the pKa in “Spectrometric” is 6.56 ± 0.12. In series [1], the “base-catalyzed ring-closing rate constant (kc,OH)” value was 7.4 ± 0.3 × 10^8 mol^−1hr^−1 and the “carboxylic acid/lactone equilibrium constant (K0)” value is 1.98 ± 0.07 × 10^−3. In series [2] (setting [3]), the “binding to the phospholipid bilayer, anionic carboxylate form (Ca)” value is “negligible binding”; the “binding to the phospholipid bilayer, zwitterionic lactone (Ln)” value is reported as “negligible binding”; the “membrane partition coefficient, lactone species with unionized phenol (Lp)” value was 61.7 ± 5.9. Moreover, in series [2] (setting [4]), the “bilayer transport of the anionic carboxylate form (Ca)” value was “impermeable”; the “transport rate constant, cationic lactone species (Lp)” value was 0.51 ± 0.07 h⁻¹; the “transport rate constant, ring-opened carboxylate zwitterion (Cn)” value turned out to be 5.7 ± 0.5 h⁻¹; the “transport rate constant, zwitterionic lactone (Ln)” value was 33.9 ± 4.6 h⁻¹.

Values taken from publication PMC4104781 (Journal of controlled release : official journal of the …, 2013).
